Reference: patent publication US20240024350A1, “ANTI-CANCER COMPOSITION CONTAINING AURANOFIN AND MERCAPTO COMPOUND AND USE THEREOF” (SUN YAT-SEN UNIVERSITY, priority 2020, published 2024)
Read-outs that look alike come from different tables or passages of the source.

Key:
[1] = system: HCT116 human colon cancer cells; assay: MTT colorimetric proliferation / cell survival assay, HCT116; settings: for Cell survival rate (%): compound alone, others not given; for Cell survival rate (%) / Cell survival rate after addition of 10 μM auranofin (%): with 30% FBS, 50 μM for TGTA, β-mercaptoethanol, mercaptoethylamine, DEDT; for Cell survival rate after addition of 10 μM auranofin (%): compound plus 10 μM auranofin, listed as Auranofin = auranofin alone
[2] = system: HepG-2 human liver cancer cells; assay: MTT colorimetric proliferation / cell survival assay, HepG-2; format: cell-based
Protocol: (§1) A flask with the cancer cells required for the experiment, with an original culture solution discarded, was washed for three times with 2 mL of PBS, 1 mL of pancreatin was added for digestion for 30 s, and 2 mL of a medium was added to terminate the digestion. The cells were transferred to a centrifuge tube and centrifuged at 1000 rpm for 3 min, the supernatant was discarded, and 2 mL of a medium was added and blew 10 times to be mixed uniformly. 10 μL of a cell suspension was taken for cell counting, and spread on a 96-well plate, with 5000 cells per well and 3 duplications for each compound, and then the number of cells and cell wells was calculated. The amount of required cell suspension and the number of cells for medium dilution were calculated by cell counting. 100 μL of medium was plated with 5000 cells per well, pipetted and mixed uniformly, and the cells were inoculated using a volley, placed in an incubator for culture, and marked.
(§2) (2) The cells cultured in step (1) was taken, and discarded with the original medium. Auranofin mother liquor was diluted to a diluent with final concentrations of 0, 0.78125, 1.5625, 3.125, 6.25, 12.5, 25, 50 and 100 μM, and mixed uniformly. A volley (using 3 wells) was used to draw 100 μL of dilution per well, a 96-well plate was tilted, diluents with each concentration were added in sequence to the corresponding 3 marked wells carefully to prevent poking the cells, blown and sucked about 3 times to be mixed uniformly, marked, shaken for 3 times, and put into a CO2 incubator for culture. The above steps were repeated for each auranofin diluent.
(§3) After auranofin was added for culture for 1 hour, the mother liquor of the mercapto compound was diluted into […] and mixed uniformly. A volley (using 3 wells) was used to suck 20 μL of diluent per well, the 96-well plate was tilted, the diluents of different mercapto compounds were added in sequence to the corresponding 3 marked wells carefully to prevent poking the cells, blown and sucked about 3 times to be mixed uniformly, and put back to the incubator to continue culture.
(§4) After different mercapto compounds were added to cells for 24 h, 20 μL of MTT (with a concentration of 5 mg/mL in PBS) per well was added to the 96-well plate by a volley; and incubation was carried out at 37° C. for 4 h. At the end of incubation, the MTT mixture was sucked out, and DMSO was added at 130 μL/well using a volley.
(§5) According to the results of Table 1-2, the killing effect of auranofin in combination with various compounds (with 30% FBS) on HCT116 human colon cancer cells and the killing effect of the auranofin-TGTA (50 μM) in combination with other cancer cells (lung cancer, colon cancer, breast cancer, liver cancer, cervical cancer and gastric cancer cells) were further detected by using the same method as the above.

[3] = system: A549 human lung cancer cells; assay: MTT colorimetric proliferation / cell survival assay, A549; format: cell-based
Protocol: as §1, §2, §3, §4, §5

[4] = system: MCF-7 human breast cell cancer cells; assay: MTT colorimetric proliferation / cell survival assay, MCF-7; format: cell-based
Protocol: as §1, §2, §3, §4, §5

[5] = system: HCT-8 human colon adenocarcinoma cells; assay: MTT colorimetric proliferation assay, HCT-8; format: cell-based; settings: containing 40 mg/mL BSA; 200 μM of added compound
Protocol: as §1
(2) The cells cultured in step (1) was taken, and discarded with the original medium. Auranofin mother liquor was diluted to a diluent with final concentrations of 0, 0.78125, 1.5625, 3.125, 6.25, 12.5, 25, 50 and 100 μM, and mixed uniformly. […]

[6] = system: PC9 human lung cancer cells; assay: MTT cell survival assay, PC9; format: cell-based; settings: TGTA 50 μM
Protocol: as §1, with “marked. […]” for “marked.”
as §5

[7] = system: PCGR lung cancer cells; assay: MTT cell survival assay, PCGR; format: cell-based; settings: TGTA 50 μM
Protocol: as §1, with “marked. […]” for “marked.”
as §5

[8] = system: Hela human cervical cancer cells; assay: MTT cell survival assay, Hela; format: cell-based; settings: TGTA 50 μM
Protocol: as §1, with “marked. […]” for “marked.”
as §5

[9] = system: MGC803 human gastric cancer cells; assay: MTT cell survival assay, MGC803; format: cell-based; settings: TGTA 50 μM
Protocol: as §1, with “marked. […]” for “marked.”
as §5

[10] = system: TrxR; assay: Intracellular TrxR activity in HepG2 cells (DTNB reduction); format: cell-based, human; settings: 0.5 μM auranofin alone
Protocol: (§6) HepG2 cells were used as a test subject.
(§7) The cells were inoculated into a 6-well plate at 2×10^5 cell/well and incubated for 24 h.
After the incubation, the cell culture medium was replaced with 30% FBS to simulate the high concentration mercapto environment under the normal physiological condition, and used as a control (without adding any reagents). The experimental group was added with 0.5 μM of auranofin for incubation at 37° C. for 30 min, and then added with the mercapto compound (DEDT, β-mercaptoethanol or mercaptoethylamine) for incubation for 30 min (final concentration of DMSO in the system was ≤1%). The incubated cells were washed for 3 times with PBS, added with 100 μL of icy lysis buffer (containing 50 mM of phosphate buffer with pH 7.4, 1 mM EDTA, and 0.10% Triton-X 100), and then lysed on ice for 5 min to collect the cell lysate.
100 μL of buffer (containing 50 mM of potassium phosphate with pH 7.4, 1 mM EDTA, and 0.2 mM NADPH) was added to the collected cell lysate (10 μg protein), 5,5′-dithiobis (2-nitrobenzoic acid) (DTNB, with a final concentration of 3 mM) was added to initiate a reaction, and the activity of TrxR was obtained on the basis of the increased OD value in 10 minutes (OD detection wavelength was 410 nm). Auranofin alone was the positive control sample, and the blank group was the negative control.

[11] = system: HepG2 cells; assay: Cell uptake of auranofin (gold by ICP-MS) in HepG2 cells; format: cell-based, human
Protocol: as §6, §7
After the incubation, the cell culture medium was replaced with 30% of FBS to stimulate a high-concentration mercapto environment under the normal physiological condition, and used as a control (without adding any reagents). The experimental group was added with 3 μM of auranofin for incubation at 37° C. for 10 min and then added with the mercapto compound (DEDT, β-mercaptoethanol or mercaptoethylamine) for incubation for 1 h (final concentration of DMSO in the system was 1%). After incubation, the cells were immediately washed for 3 times with PBS, 500 μL of ultrapure water was added to each well to break the cells, and after 15 min, the cell lysate was collected.
The collected cell lysate was dissolved by adding aqua regia and diluted with ultrapure water to a proper proportion. Inductively coupled plasma mass spectrometry (ICP-MS) was used for gold detection. The cell uptake rate of 3 μM […] without FBS was used as the control.
Wherein, the above uptake is the amount of gold (mg) in 1 g protein in the cell.

[12] = system: colon cancer cell HCT116 xenograft; assay: Mouse tumor model, HCT116 xenograft; format: in vivo, BALB/Cann nu (Nude) mice; settings: HCT116 xenograft in nude mice; intraperitoneal once a day; auranofin 3 mg/kg/day, mercapto compound (β-mercaptoethanol or TGTA) 40 mg/kg/day
Protocol: Establishment of mouse tumor model: 2 million colon cancer cell HCT116 cells suspended in PBS were injected subcutaneously into the dorsal side of 5-7 week-old female BALB/Cann nu (Nude) mice to establish a xenograft model.
When the tumor volume reached about 50 mm^3 (3-4 days after tumor inoculation), mice were randomly divided into a control group and a treatment group, the control group was treated with corn oil, the treatment group was intraperitoneally injected with auranofin (3 mg/kg mouse body weight/day) in combination with various mercapto compounds (β-mercaptoethanol or TGTA, 40 mg/kg mouse body weight/day) once a day. When the tumor volume grew to 1000 mm^3, the mice were anesthetized and then sacrificed by dislocation of the cervical spine.

[13] = system: acute lymphocytic leukemia cell P388; settings: mice inoculated with P388; earlier studies; cited from earlier work
[14] = system: solid tumor models; settings: several solid tumor models; intraperitoneal injection; follow-up studies; cited from earlier work

SMILES: N[C@@H](CCC(=O)N[C@@H](CS)C(=O)NCC(=O)O)C(=O)O [Glutathione (GSH), Glutathione]
- Cell survival rate (%) [1]: 116 ± 6%
- Cell survival rate after addition of 10 μM auranofin (%) [1]: 81 ± 7%

SMILES: CCCc1cc(=O)[nH]c(=S)[nH]1 [Propylthiouracil]
- Cell survival rate (%) [1]: 101 ± 6%
- Cell survival rate after addition of 10 μM auranofin (%) [1]: 76 ± 9%

SMILES: Cn1cc[nH]c1=S [Methimazole]
- Cell survival rate (%) [1]: 98 ± 9%
- Cell survival rate after addition of 10 μM auranofin (%) [1]: 87 ± 5%

SMILES: O=S([O-])([O-])=S.[Na+].[Na+] [sodium thiosulfate]
- Cell survival rate (%) [1]: 105 ± 5%
- Cell survival rate after addition of 10 μM auranofin (%) [1]: 84 ± 8%

SMILES: CC(=O)OC[C@H]1O[C@@H]([S-])[C@H](OC(C)=O)[C@@H](OC(C)=O)[C@@H]1OC(C)=O.CCP(CC)CC.[Au+] [Auranofin]
- Cell survival rate (%) HepG2 ([2]; Liver cancer, TGTA 50 μM): 87 ± 1%
- IC50 ([2]; auranofin alone, without BSA/FBS, read-out: IC50 HepG2 Human liver cancer cells): 1.3 µM
- IC50 ([2]; containing 40 mg/mL BSA, 200 μM of added compound, read-out: IC50 HepG-2 Human liver cancer cells): 16.6 µM
- IC50 ([2]; under the normal physiological condition, auranofin alone, read-out: IC50 value, proliferation of HepG-2 human liver cancer cells): > 30 µM
- IC50 ([2]; with 10% FBS, mercapto compound added 1 h after auranofin, MTT after 24 h, read-out: IC50 HepG-2 Human liver cancer cells): 3 µM
- Cell survival rate (%) A549 ([3]; Lung cancer, TGTA 50 μM): 81 ± 7%
- IC50 ([3]; auranofin alone, without BSA/FBS, read-out: IC50 A549 Human lung cancer cells): 4.2 µM
- IC50 ([3]; containing 40 mg/mL BSA, 200 μM of added compound, read-out: IC50 A549 Human lung cancer cells): 70.5 µM
- IC50 ([3]; under the normal physiological condition, auranofin alone, read-out: IC50 value, proliferation of A549 human lung cancer cells): > 30 µM
- IC50 ([3]; with 10% FBS, mercapto compound added 1 h after auranofin, MTT after 24 h, read-out: IC50 A549 Human lung cancer cells): 12.9 µM
- IC50 ([4]; auranofin alone, without BSA/FBS, read-out: IC50 MCF-7 Human breast cell cancer cells): 3.4 µM
- Cell survival rate (%) MCF-7 ([4]; breast cancer, TGTA 50 μM): 80 ± 2%
- IC50 ([4]; containing 40 mg/mL BSA, 200 μM of added compound, read-out: IC50 MCF-7 Human breast cell cancer cells): 39.7 µM
- IC50 ([4]; under the normal physiological condition, auranofin alone, read-out: IC50 value, proliferation of MCF-7 human breast cell cancer cells): > 30 µM
- IC50 ([4]; with 10% FBS, mercapto compound added 1 h after auranofin, MTT after 24 h, read-out: IC50 MCF-7 Human breast cell cancer cells): 5.7 µM
- IC50 [5]: 33.2 µM
- Cell survival rate (%) PC9 [6]: 93 ± 3%
- Cell survival rate (%) PCGR [7]: 37 ± 4%
- Cell survival rate (%) Hela [8]: 46 ± 7%
- Cell survival rate (%) MGC803 [9]: 79 ± 3%
- Activity of TrxR ([10]; with 30% FBS): 63.6%
- Activity of TrxR ([10]; with 30% FBS, listed as Positive control): 63.6%
- Activity of TrxR ([10]; without FBS, relative to negative control 100%): 15.9%
- Activity of TrxR ([10]; without FBS, relative to negative control 100%, listed as Positive control): 15.9%
- uptake of gold [11]: 728 mg/g protein
- growth of tumors [12]: not effectively inhibited
- life span of mice [13]: effectively prolong the life span
- life span of mice and growth of tumors [14]: could neither prolong the life span of mice nor inhibit the growth of tumors
- Cell survival rate (%) HCT116 ([1]; colon cancer, TGTA 50 μM): 75 ± 5%
- Cell survival rate after addition of 10 μM auranofin (%) [1]: 75 ± 5%
- IC50 ([1]; read-out: IC50 HCT116 Human colon cancer cells, auranofin alone, without BSA/FBS): 1 µM
- IC50 ([1]; read-out: IC50 HCT116 Human colon cancer cells, with 10% FBS, mercapto compound added 1 h after auranofin, MTT after 24 h): 3.4 µM
- IC50 ([1]; read-out: IC50 HCTI16 Human colon cancer cells, containing 40 mg/mL BSA, 200 μM of added compound): 30 µM
- IC50 ([1]; read-out: IC50 value, proliferation of HCT116 human colon cancer cells, under the normal physiological condition, auranofin alone): > 30 µM

SMILES: [Na+].[Na+].[Na+].[O-]P([O-])([O-])=S [Sodium thiophosphate hydrate]
- Cell survival rate (%) [1]: 99 ± 8%
- Cell survival rate after addition of 10 μM auranofin (%) [1]: 79 ± 4%
